Values joined by “and” are separate entries in the source; they are usually repeats but may differ in a detail not shown here. Equal values may be shown once. Read-outs that look alike come from different tables or passages of the source. Each block holds one compound with its values, some of them ahead of it.
Experiments:
[1] = tested on: subcutaneous NCI-H522 NSCLC tumors; settings: for tolerability: mouse, in vivo, po
Protocol: All regimens were orally administered once daily for 21 days. Tumor sizes were evaluated periodically during treatment at the indicated days post-inoculation.

[2] = tested on: NCI-H441 NSCLC human tumor xenograft; experiment: NCI-H441 human lung tumor xenograft model; format: in vivo; settings: for BW loss: on day 4
Protocol: Erlotinib was administered daily at 100 mg/kg or 50 mg/kg orally, five days a week for four weeks.
Gefitinib was administered daily at 50 mg/kg orally, five days a week for four weeks.

[3] = tested on: 22RV1; experiment: 72 hr MTS assay, combination index by CalcuSyn; format: cell-based, human; settings: 22RV1 (Prostate), chemotherapeutic agent combined with Agent A
[4] = tested on: DU-145; experiment: 72 hr MTS assay, combination index by CalcuSyn; format: cell-based, human; settings: DU-145 (Prostate), chemotherapeutic agent combined with Agent A
[5] = tested on: Hsc-39 human gastric tumor xenograft; experiment: Hsc-39 human gastric tumor xenograft model; format: in vivo
Protocol: (§2) Specifically, gastric cancer cell lines MKN-45 and Hsc-39 were tested.

[6] = tested on: MKN-45 human gastric tumor xenograft; experiment: MKN-45 human gastric tumor xenograft model (Example 88)
Protocol: as §2

[7] = tested on: MIA PaCa-2 pancreatic tumor cells; experiment: 72 h MTT proliferation assay, equipotent fixed-ratio combination, isobologram analysis (Calcusyn)
Protocol: (§3) Cell culture and reagents: NCI-H441, PC-3, MIA PaCa-2, HeLa, HT-29 and A549 cancer cell lines (American Type Culture Collection) were cultured in Dulbecco's modified Eagle's medium containing 10% fetal bovine serum, 100 units/mL penicillin, 100 g/mL streptomycin, and 2 mM L-glutamine.
(§4) Duplicate independent experiments were performed for each cell line/drug combination. Data were then analyzed by Calcusyn™ (Biosoft, Cambridge, UK) data analysis software.
(§5) Cell survival analysis. In some experiments, cell survival was determined by the 3-(4,5-dimethylthiazol-2-yl)-2,5-diphenyl tetrazolium bromide (MTT) assay. Briefly, cells were plated in a 96-well plate at 5-10,000 cells per well, cultured for 24 hours in complete growth medium, and then treated with various drugs and drug combinations for 72 hours. […] Data were normalized to untreated controls and analyzed with Microsoft Excel.
(§6) Median effect plots and isobolograms were performed for each experiment.

[8] = tested on: PC-3 cells; experiment: as above
Protocol: as §3, §4, §5, §6

[9] = tested on: MKN-45 human gastric tumor xenograft; format: in vivo; settings: for BW loss: on day 21
Protocol: 5-FU was administered daily at 10 mg/kg intravenously, five days a week for two weeks. TS-1 was administered daily at 10 mg/kg orally, five days a week for two weeks. Capecitabine was administered daily at 360 mg/kg orally, five days a week for two weeks. CDDP was administered weekly at 5 mg/kg intravenously for two weeks.

[10] = tested on: NCI-H441 non-small cell lung cancer cells; experiment: 72 h MTT proliferation assay, equipotent fixed-ratio combination, isobologram analysis (Calcusyn); format: cell-based, human
Source text: (§1) Erlotinib is an inhibitor of the epidermal growth factor receptor and is indicated for the treatment of patients with locally advanced or metastatic non-small cell lung cancer after failure of at least one prior chemotherapy regimen, and is indicated for the first-line treatment of patients with locally advanced, unresectable or metastatic pancreatic cancer.

[11] = tested on: HT29 colon cancer cells; experiment: as above; format: cell-based; settings: Homo sapiens
Source text: as §1
Gefitinib is an inhibitor of the EGF receptor.

[12] = target: T1, c-Met (Homo sapiens, UniProt P08581); experiment: c-Met biochemical assays
[13] = target: T1, c-Met; experiment: c-Met cell-based assays; settings: a number of cell-based assays
[14] = tested on: AsPC-1; experiment: 72 hr MTS cytotoxicity assay, combination with gemcitabine; format: cell-based, human; settings: AsPC-1 (Pancreatic), chemotherapeutic agent combined with Agent A
Protocol: (§7) MIA PaCa-2 (also referred to as PACA2), PANC-1, CFPAC-1, and Hs766T human pancreatic cell lines were maintained in DMEM supplemented with 10% fetal bovine serum (FBS), penicillin, streptomycin, and fungizone. AsPC-1 cells were maintained in RPMI supplemented with 10% FBS, penicillin, streptomycin, and fungizone. HPAF-II cells were maintained in MEM supplemented with 10% FBS, penicillin, streptomycin, and fungizone. […] MTS reagent (Promega, Madison, Wis.) was added to each well and plates were incubated for 4 hr at 37° C.

[15] = tested on: HPAF-II; experiment: as above; format: cell-based, human; settings: HPAF-II (Pancreatic), chemotherapeutic agent combined with Agent A
Protocol: as §7

[16] = tested on: PANC-1; experiment: as above; format: cell-based, human; settings: PANC-1 (Pancreatic), chemotherapeutic agent combined with Agent A
Protocol: as §7

[17] = Gefitinib 50 mg/kg p.o. qd × 5 × 4
[18] = Homo sapiens, MIA PaCa-2, read-out: IC50, predicted, MIA PaCa-2 cells, predicted value used to set the ratio
[19] = Homo sapiens, PC-3, 72 h, PC-3, 72 h, single agents and fixed-ratio combination
[20] = Homo sapiens, PC-3, read-out: IC50, predicted, PC-3 cells, predicted value used to set the ratio
[21] = Capecitabine 360 mg/kg p.o. qd × 5 × 2
[22] = Homo sapiens, NCI-H441, NCI-H441 NSCLC cells, predicted value used to set the ratio, read-out: IC50, predicted
[23] = Agent A 300 mg/kg p.o. qd × 5 × 2
[24] = Agent A 300 mg/kg p.o. qd × 5 × 2, on day 10
[25] = Erlotinib 50 mg/kg p.o. qd × 5 × 4
[26] = Erlotinib 100 mg/kg p.o. qd × 5 × 4

T1 sequence (P08581 25-1390): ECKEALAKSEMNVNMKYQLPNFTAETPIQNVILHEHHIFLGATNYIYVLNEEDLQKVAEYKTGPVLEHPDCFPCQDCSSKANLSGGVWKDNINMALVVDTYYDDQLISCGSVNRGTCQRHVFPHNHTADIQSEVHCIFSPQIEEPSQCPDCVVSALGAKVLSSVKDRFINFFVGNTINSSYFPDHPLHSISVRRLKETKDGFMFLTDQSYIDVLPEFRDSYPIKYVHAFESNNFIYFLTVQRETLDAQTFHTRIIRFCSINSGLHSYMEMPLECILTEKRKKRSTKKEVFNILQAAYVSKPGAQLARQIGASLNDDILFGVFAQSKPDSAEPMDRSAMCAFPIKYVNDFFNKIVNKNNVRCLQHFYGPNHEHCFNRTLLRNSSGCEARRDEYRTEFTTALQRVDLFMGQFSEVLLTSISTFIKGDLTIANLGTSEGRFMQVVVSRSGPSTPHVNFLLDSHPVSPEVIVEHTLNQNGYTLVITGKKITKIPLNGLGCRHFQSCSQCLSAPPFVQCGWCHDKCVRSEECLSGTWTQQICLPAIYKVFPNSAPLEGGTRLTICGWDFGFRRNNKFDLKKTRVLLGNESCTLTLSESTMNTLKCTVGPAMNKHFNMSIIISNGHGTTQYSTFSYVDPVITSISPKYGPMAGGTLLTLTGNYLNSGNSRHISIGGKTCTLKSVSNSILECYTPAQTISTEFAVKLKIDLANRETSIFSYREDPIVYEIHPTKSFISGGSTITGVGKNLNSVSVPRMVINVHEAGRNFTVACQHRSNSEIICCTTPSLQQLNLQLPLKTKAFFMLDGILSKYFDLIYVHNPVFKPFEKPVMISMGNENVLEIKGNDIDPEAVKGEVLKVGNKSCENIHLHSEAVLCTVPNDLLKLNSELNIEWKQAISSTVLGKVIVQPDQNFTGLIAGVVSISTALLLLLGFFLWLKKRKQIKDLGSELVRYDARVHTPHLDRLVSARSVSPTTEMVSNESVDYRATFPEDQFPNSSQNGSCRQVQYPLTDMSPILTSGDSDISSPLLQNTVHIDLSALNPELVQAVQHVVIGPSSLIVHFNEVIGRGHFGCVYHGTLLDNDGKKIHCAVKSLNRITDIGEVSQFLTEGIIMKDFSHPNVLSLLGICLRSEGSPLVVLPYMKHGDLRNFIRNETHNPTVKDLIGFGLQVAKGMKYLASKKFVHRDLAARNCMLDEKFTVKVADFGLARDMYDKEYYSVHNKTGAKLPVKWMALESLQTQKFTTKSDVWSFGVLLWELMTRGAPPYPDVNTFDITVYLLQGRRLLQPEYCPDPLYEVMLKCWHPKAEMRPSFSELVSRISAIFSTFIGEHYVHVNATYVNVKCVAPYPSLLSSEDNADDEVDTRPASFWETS

Compound: CNC(=O)c1cc(Oc2ccc(NC(=O)Nc3ccc(Cl)c(C(F)(F)F)c3)cc2)ccn1 [sorafenib]
- tolerability [1]: well-tolerated

- melting point: 87 to 91 °C
Compound: COc1cccc([C@@H]2C(=O)NC(=O)[C@H]2c2cn3c4c(cccc24)CCC3)c1 (racemic) [Example 68, (±)-Trans-3-(5,6-dihydro-4H-pyrrolo[3,2,1-ij]quinolin-1-yl)-4-(3-methoxyphenyl)pyrrolidine-2,5-dione]

- melting point: 234 to 235 °C
Compound: O=C1NC(=O)C(c2cn3c4c(cccc24)CCC3)=C1c1ccc(F)cc1 [Example 67, 3-(5,6-dihydro-4H-pyrrolo[3,2,1-ij]quinolin-1-yl)-4-(4-fluorophenyl)-1H-pyrrole-2,5-dione]

Compound: COc1cc2ncnc(Nc3ccc(F)c(Cl)c3)c2cc1OCCCN1CCOCC1 [Gefitinib, gefitinib]
- Mortality [2, 17]: 0/5
- BW loss [2, 17]: −0.5 (4) g
- T/C Min ([2]; Gefitinib 50 mg/kg p.o. qd × 5 × 4, on day 21): 0.60 (21)

Compound: CC(=O)O[C@@]12CO[C@@H]1C[C@H](O)[C@@]1(C)C(=O)[C@H](O)C3=C(C)[C@@H](OC(=O)[C@H](O)[C@@H](NC(=O)OC(C)(C)C)c4ccccc4)C[C@@](O)([C@@H](OC(=O)c4ccccc4)[C@H]21)C3(C)C [Docetaxel, docetaxel]
- Combination Conclusion [3]: Synergism
- Combination Index Values at ED50 [3]: 0.7
- Combination Conclusion [4]: Synergism
- Combination Index Values at ED50 [4]: 0.7
- T/C Min ([5]; Docetaxel 7.5 mg/kg i.v. single, on day 17): 0.46 (17)
- T/C Min ([5]; Docetaxel 15 mg/kg i.v. single, on day 17): 0.40 (17)
- Mortality ([6]; Docetaxel 7.5 mg/kg i.v. single): 0/5
- T/C Min ([6]; Docetaxel 7.5 mg/kg i.v. single, on day 15): 0.63 (15)
- Mortality ([6]; Docetaxel 15 mg/kg i.v. single): 0/5
- T/C Min ([6]; Docetaxel 15 mg/kg i.v. single, on day 7): 0.68 (7)
- IC50 ([7]; Homo sapiens, MIA PaCa-2, 72 h, MIA PaCa-2, 72 h, single agents and fixed-ratio combination): 5.1 nM
- IC50 [7, 18]: ~5 nM
- IC50 [8, 19]: 6 nM
- IC50 [8, 20]: ~5 nM
- IC50 ([8]; PC-3, 72 h, single agents and fixed-ratio combination, listed as Taxotere): 3.5 nM

- melting point: 208 to 210 °C
Compound: O=C1NC(=O)[C@@H](c2cn3c4c(cccc24)CCC3)[C@@H]1c1ccc(F)cc1 (racemic) [Example 70, (±)-Trans-3-(5,6-dihydro-4H-pyrrolo[3,2,1-ij]quinolin-1-yl)-4-(4-fluorophenyl)pyrrolidine-2,5-dione]

Compound: N.N.[Cl][Pt][Cl] [Cisplatin, cisplatin]
- Mortality ([9]; Cisplatin 5 mg/kg i.v. Weekly × 2): 0/5
- T/C Min ([9]; Cisplatin 5 mg/kg i.v. Weekly × 2, on day 10): 0.55 (10)
- IC50 ([7]; MIA PaCa-2, 72 h, single agents and fixed-ratio combination): 3370 nM and 3790 nM

Compound: O=c1[nH]cc(F)c(=O)[nH]1 [Example 5-FU, fluorouracil]
- Mortality ([9]; 5-FU 10 mg/kg i.v. qd × 5 × 2): 0/5
- T/C Min ([9]; 5-FU 10 mg/kg i.v. qd × 5 × 2, on day 14): 0.63 (14)
- BW loss ([9]; 5-FU 10 mg/kg i.v. qd × 5 × 2): −3.4 (21) g

- melting point: 262 to 265 °C
Compound: O=C1NC(=O)C(c2cn3c4c(cccc24)CCC3)=C1c1ccc(OCc2ccccc2)cc1 [Example 66, 3-[4-(benzyloxy)phenyl]-4-(5,6-dihydro-4H-pyrrolo[3,2,1-ij]quinolin-1-yl)-1H-pyrrole-2,5-dione]

Compound: CCCCCOC(=O)Nc1nc(=O)n([C@@H]2O[C@H](C)[C@@H](O)[C@H]2O)cc1F [Capecitabine, capecitabine]
- Mortality [9, 21]: 0/5
- T/C Min ([9]; Capecitabine 360 mg/kg p.o. qd × 5 × 2, on day 14): 0.42 (14)
- BW loss [9, 21]: −1.4 (21) g

Compound: O=C1NC(=O)[C@@H](c2cn3c4c(cccc24)CCC3)[C@@H]1c1c[nH]c2ccccc12 (single isomer, unassigned) [Agent A]
- IC50 [10, 22]: 300 nM
- IC50 ([11]; HT-29, 72 h, HT29, 72 h, single agents and fixed-ratio combination, read-out: IC50): 179 nM
- IC50 ([11]; HT-29, HT29 cells, predicted value used to set the ratio, read-out: IC50, predicted): 150 nM
- tolerability [1]: well-tolerated
- effects on body weight gain ([1]; oral gavage once daily for 21 days, all cohorts): no adverse effects on body weight gain
- Mortality ([2]; Agent A 300 mg/kg p.o. qd × 5 × 4): 0/5
- T/C Min ([2]; Agent A 300 mg/kg p.o. qd × 5 × 4, on day 17): 0.52 (17)
- Mortality [9, 23]: 0/5
- T/C Min ([9]; Agent A 300 mg/kg p.o. qd × 5 × 2, on day 4): 0.50 (4)
- BW loss [9, 23]: −1.7 (21) g
- T/C Min [5, 24]: 0.63 (10)
- c-Met activity [12]: inhibit c-Met activity
- c-Met activity [13]: inhibit c-Met activity
- Mortality [6, 23]: 0/5
- BW loss [6, 24]: −1.3 (10) g
- T/C Min ([6]; Agent A 300 mg/kg p.o. qd × 5 × 2, on day 15): 0.61 (15)
- IC50 [7, 18]: 150 nM
- IC50 [8, 19]: 875 nM
- IC50 [8, 20]: 1000 nM
- IC50 ([8]; PC-3, 72 h, single agents and fixed-ratio combination): 553 nM

- melting point: 105 to 107 °C
Compound: O=C1NC(=O)[C@@H](c2cn3c4c(cccc24)CCC3)[C@@H]1c1ccc(O)cc1 (racemic) [Example 72, (±)-Trans-3-(5,6-dihydro-4H-pyrrolo[3,2,1-ij]quinolin-1-yl)-4-(4-hydroxyphenyl)pyrrolidine-2,5-dione]

Compound: Nc1ccn([C@@H]2O[C@H](CO)[C@@H](O)C2(F)F)c(=O)n1 [Gemcitabine, gemcitabine]
- Combination Conclusion [14]: Synergism
- Combination Index Values at ED50 [14]: 0.6
- Combination Conclusion [15]: Synergism
- Combination Index Values at ED50 [15]: 0.2
- Combination Conclusion [16]: Synergism
- Combination Index Values at ED50 [16]: 0.7

- melting point: 108 to 110 °C
Compound: O=C1NC(=O)[C@@H](c2cn3c4c(cccc24)CCC3)[C@@H]1c1cccc(O)c1 (racemic) [Example 69, (±)-Trans-3-(5,6-dihydro-4H-pyrrolo[3,2,1-ij]quinolin-1-yl)-4-(3-hydroxyphenyl)pyrrolidine-2,5-dione]

Compound: C#Cc1cccc(Nc2ncnc3cc(OCCOC)c(OCCOC)cc23)c1 [Erlotinib, erlotinib]
- IC50 ([10]; Homo sapiens, NCI-H441, 72 h, NCI-H441, 72 h, single agents and fixed-ratio combination, read-out: IC50): 3560 nM
- IC50 [10, 22]: ~1000 nM
- IC50 ([10]; NCI-H441, 72 h, single agents and fixed-ratio combination, read-out: IC50): 3160 nM
- IC50 ([11]; HT-29, HT29, 72 h, single agents and fixed-ratio combination, read-out: IC50): 56300 nM
- Mortality [2, 25]: 0/5
- BW loss [2, 25]: −0.6 (4) g
- T/C Min ([2]; Erlotinib 50 mg/kg p.o. qd × 5 × 4, on day 17): 0.59 (17)
- Mortality [2, 26]: 0/5
- BW loss [2, 26]: −1.0 (4) g
- T/C Min ([2]; Erlotinib 100 mg/kg p.o. qd × 5 × 4, on day 17): 0.50 (17)

Source: patent US9642847B2, “Combinational compositions and methods for treatment of cancer” (ArQule, Inc., priority 2009, dated 2017)
